Test results from US9428456B2, “1-[m-carboxamido(hetero)aryl-methyl]-heterocyclyl-carboxamide derivatives” (Actelion Pharmaceuticals Ltd., priority 2012, dated 2016).

Molecular target: CXCR7 (Homo sapiens (Human), UniProt P25106)
Assay: PathHunter CHO-K1 CXCR7 b-arrestin assay (agonistic activity)
Format: cell-based
Details: PathHunter CHO-K1 CXCR7 b-arrestin cell line
Description: The CXCl12 receptor and CXCR7 agonistic activities of the compounds of formula (I) are determined in accordance with the following experimental method.
The assay is using the PathHunter™ CHO-K1 CXCR7 b-arrestin cell line from DiscoverX. The system is based on the Enzyme Fragment Complementation Technology. Two complementing fragments of the b-galactosidase enzyme are expressed within stably transfected cells. The larger portion of b-gal, termed EA for Enzyme Acceptor, is fused to the C-terminus of b-arrestin 2. The smaller fragment, termed ProLink™ tag, is fused to CXCR7 at the C-terminus. Upon activation, b-arrestin is recruited which forces the interaction of ProLink and EA, allowing complementation of the two fragments of b-gal and the formation of a functional enzyme which is capable of hydrolysing the substrate and generating a chemiluminescent signal.
CHO-K1 CXCR7 b-arrestin cells are detached from culture dishes with a cell dissociation buffer (Invitrogen, #13151-014) and collected in growing medium (F12 HAMS 90% (v/v)/FCS 10% (v/v), Penicilin/streptomycin 1% (v/v)). 5000 cells per well (in 20 μl) are seeded in a 384 well plate (white-walled, clear bottom; BD Falcon #353274). The plate is incubated at 37° C./5% CO2 for 24 hours. Medium is then replaced by 20 μl OPTIMEM (Invitrogen #31985) for 3 to 4 hours. Test compounds are dissolved at 10 mM in DMSO and serially diluted in DMSO to 200× of the final concentration for dose response curves. Compounds are then diluted 1:33.3 in HBSS1×. 5 μl/well of HBSS1×/20 mM HEPES/0.2% BSA are added to the assay plate followed by addition of 5 μl/well of diluted compounds. CXCL12 (Peprotech #300-28A) may be used as a reference agonist. The plate is incubated for 90 minutes at 37° C. 12 μl of detection reagent (Path Hunter Detection Kit, DiscoveRx, #93-0001) is transferred to the assay plate and to the plate is incubated for 1 hour at room temperature. Luminescent signal is read in a microplate reader (FLUOstar Optima, bmg). The calculated EC50 values may fluctuate depending on the daily cellular assay performance. Fluctuations of this kind are known to those skilled in the art. Average EC50 values from several measurements are given as geometric mean values.

Chain of CXCR7 (P25106 whole entry): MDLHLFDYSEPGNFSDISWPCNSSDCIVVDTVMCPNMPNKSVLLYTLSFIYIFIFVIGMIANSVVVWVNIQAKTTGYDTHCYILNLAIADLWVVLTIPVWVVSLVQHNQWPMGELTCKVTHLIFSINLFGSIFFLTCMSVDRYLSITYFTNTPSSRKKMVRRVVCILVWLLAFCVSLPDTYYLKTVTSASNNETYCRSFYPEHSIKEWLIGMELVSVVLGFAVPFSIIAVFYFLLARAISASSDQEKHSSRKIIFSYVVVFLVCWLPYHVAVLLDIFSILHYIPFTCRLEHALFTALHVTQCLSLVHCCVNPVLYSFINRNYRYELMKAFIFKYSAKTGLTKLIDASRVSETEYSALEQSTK
Chain of CXCR7 (P32121 whole entry partner): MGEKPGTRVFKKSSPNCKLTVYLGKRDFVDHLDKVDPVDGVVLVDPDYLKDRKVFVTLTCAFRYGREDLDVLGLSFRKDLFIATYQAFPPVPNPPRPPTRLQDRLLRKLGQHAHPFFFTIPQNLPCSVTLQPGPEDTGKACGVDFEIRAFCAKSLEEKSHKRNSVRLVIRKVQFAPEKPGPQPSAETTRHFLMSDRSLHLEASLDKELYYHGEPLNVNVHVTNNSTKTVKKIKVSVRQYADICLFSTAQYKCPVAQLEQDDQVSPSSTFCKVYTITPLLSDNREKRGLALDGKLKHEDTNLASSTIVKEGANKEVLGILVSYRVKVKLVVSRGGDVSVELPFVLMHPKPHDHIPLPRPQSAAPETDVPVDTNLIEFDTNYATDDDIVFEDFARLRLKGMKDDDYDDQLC

Row | Compound | EC50
1 | CC(C)(C)CC(=O)Nc1cccc(CN2CCC(C(=O)NC3CCCCC3)CC2)c1 [Example 1.020] | 25 nM
2 | Cc1ncccc1C(=O)Nc1cccc(CN2CCC(C(=O)NC3CCCCC3)CC2)c1 [Example 1.065] | 59 nM
3 | CC(c1cccc(NC(=O)c2cnc3[nH]ccc3c2)c1)N1CCC(C(=O)NC2CCCCC2)CC1 (racemic) [Example 1.190] | 134 nM
4 | O=C(Nc1cccc(CN2CCC(C(=O)NC3CCCC3)CC2)c1)c1ccc(F)cc1 [Example 1.206] | 0.9 nM
5 | COc1ncccc1C(=O)Nc1cccc(CN2CCC(C(=O)NC3CCCCC3)CC2)c1 [Example 1.069] | 10 nM
6 | O=C(Nc1cccc(CN2CCC(C(=O)NC3CCCC3)CC2)c1)c1ccc(F)cn1 [Example 1.207] | 0.8 nM
7 | CC(C)(C)NC(=O)C1CCN(Cc2cccc(NC(=O)C3CNc4ccccc43)c2)CC1 (racemic) [Example 1.265] | 15 nM
8 | COc1ccc(NC(=O)c2cccc(C(F)(F)F)n2)cc1CN1CCC(C(=O)NC(C)(C)C)CC1 [Example 1.296] | 6 nM
9 | O=C(Nc1cccc(CN2CCC(C(=O)NC3CCCC3)CC2)c1)c1cncc(F)c1 [Example 1.215] | 2 nM
10 | Cc1cc(C(=O)Nc2cccc(C(C)N3CCC(C(=O)NC4CCCCC4)CC3)c2)ncn1 (racemic) [Example 1.198] | 92 nM
11 | CC(c1cccc(NC(=O)c2ccncn2)c1)N1CCC(C(=O)NC2CCCCC2)CC1 (racemic) [Example 1.193] | 23 nM
12 | CC(C)(C)NC(=O)C1CCN(Cc2cccc(NC(=O)c3cnc4ccccc4n3)c2)CC1 [Example 1.232] | 3 nM
13 | CC(C)CNC(=O)C1CCN(Cc2cccc(NC(=O)c3cccc(C(F)(F)F)n3)c2)C1 (racemic) [Example 2.098, rac-6-Trifluoromethyl-pyridine-2-carboxylic acid [3-(3-isobutylcarbamoyl-pyrrolidin-1-ylmethyl)-phenyl]-amide] | 193 nM
14 | CC(C)(C)NC(=O)C1CCN(Cc2cccc(NC(=O)Cc3ccc(Cl)cc3Cl)c2)CC1 [Example 1.244] | 5 nM
15 | CC(C)(C)NC(=O)C1CCN(Cc2cccc(NC(=O)C(O)c3ccccc3Cl)c2)CC1 (racemic) [Example 1.270] | 6 nM
16 | CCC(C)(C)NC(=O)C1CCN(Cc2cccc(NC(=O)c3ccc(Cl)cn3)c2)CC1 [Example 1.338] | 0.8 nM
17 | O=C(Nc1cccc(CN2CCC(C(=O)NC3CCCCC3)CC2)c1)c1ccccn1 [Example 1.039] | 1 nM
18 | COc1ccc(CN2CCC(C(=O)NC(C)(C)C)CC2)cc1NC(=O)c1cncc(C)c1 [Example 1.305] | 7 nM
19 | COc1cc(C(=O)Nc2cccc(CN3CCC(C(=O)NC4CCCCC4)CC3)c2)cc(Cl)n1 [Example 1.075] | 9 nM
20 | CC(C)(C)NC(=O)C1CCN(Cc2cccc(NC(=O)c3ccc(C(F)(F)F)c[n+]3[O-])c2)CC1 [Example 1.348] | 8 nM
21 | 6-Trifluoromethyl-pyridine-2-carboxylic acid [3-(4-pentylcarbamoyl-piperidin-1-ylmethyl)-phenyl]-amide [Example 2.080] | 15 nM

Row | Compound | EC50
22 | COc1ccc(C(=O)Nc2cccc(C(C)N3CCC(C(=O)NC4CCCCC4)CC3)c2)cc1 (stereo not shown) [Example 1.167] | 25 nM
23 | Cc1cnc(C(=O)Nc2cccc(CN3CCC(C(=O)NC4CCCCC4)CC3)c2)cn1 [Example 1.142] | 2 nM
24 | O=C(Cc1ccc2ccccc2c1)Nc1cccc(CN2CCC(C(=O)NC3CCCCC3)CC2)c1 [Example 1.015] | 78 nM
25 | CC(c1cccc(NC(=O)c2cccnc2)c1)N1CCC(C(=O)NC2CCCCC2)CC1 (racemic) [Example 1.171] | 150 nM
26 | O=C(Nc1cccc(CN2CCC(C(=O)NC3CCCCC3)CC2)c1)c1nccc2ccccc12 [Example 1.021] | 39 nM
27 | Cc1cncc(C(=O)Nc2cccc(CN3CCC(C(=O)NC4CCCC4)CC3)c2)c1 [Example 6.002, N-(3-((4-(cyclopentylcarbamoyl)piperidin-1-yl)d2methyl)phenyl)-5-methylnicotinamide] | 4 nM
28 | COC(=O)c1cncc(C(=O)Nc2cccc(CN3CCC(C(=O)NC(C)(C)C)CC3)c2)c1 [Example 1.349] | 34 nM
29 | Cn1cnc(C(=O)Nc2cccc(CN3CCC(C(=O)NC4CCCCC4)CC3)c2)c1 [Example 1.051] | 130 nM
30 | CCc1ccc(CN2CCC(C(=O)NC(C)(C)C)CC2)cc1NC(=O)c1ccc(F)cc1 [Example 1.328] | 8 nM
31 | Cc1ccc(CN2CCC(C(=O)NC(C)(C)C)CC2)cc1NC(=O)c1cccc(C(F)(F)F)n1 [Example 1.301] | 2 nM
32 | CC(C)(C)NC(=O)C1CCN(Cc2cccc(NC(=O)Cc3ccccc3)c2)CC1 [Example 1.259] | 4 nM
33 | CC(C)(C)NC(=O)C1CCN(Cc2cccc(NC(=O)C3C(C)(C)C3(C)C)c2)CC1 [Example 1.260] | 0.9 nM
34 | Cc1cccc(C)c1C(=O)Nc1cccc(CN2CCC(C(=O)NC3CCCCC3)CC2)c1 [Example 1.108] | 633 nM
35 | CC(C)(C)NC(=O)C1CCN(Cc2cccc(NC(=O)c3ccc(C(F)(F)F)cc3)c2)CC1 [Example 1.238] | 4 nM
36 | CC(C)(C)NC(=O)C1CCN(Cc2cccc(NC(=O)c3cncc(C(F)(F)F)c3)c2)CC1 [Example 1.230] | 1 nM
37 | Cc1cc(Cl)ccc1C(=O)Nc1cccc(CN2CCC(C(=O)NC3CCCCC3)CC2)c1 [Example 1.121] | 5 nM
38 | Cc1cc(CN2CCC(C(=O)NC(C)(C)C)CC2)cc(NC(=O)c2ccc(F)cc2)c1 [Example 1.318] | 13 nM
39 | Cc1cc(C(=O)Nc2cccc(C(C)N3CCC(C(=O)NC4CCCCC4)CC3)c2)ccn1 (racemic) [Example 1.184] | 33 nM
40 | COc1cc(C(=O)Nc2cccc(CN3CCC(C(=O)NC4CCCCC4)CC3)c2)nc(OC)n1 [Example 1.062] | 57 nM
41 | O=C(Nc1cccc(CN2CCC(C(=O)NC3CCCCC3)CC2)c1)c1cccc(C(F)(F)F)c1 [Example 1.104] | 5 nM
42 | COc1ccc(CN2CCC(C(=O)NC(C)(C)C)CC2)cc1NC(=O)c1ccc(F)cc1 [Example 1.306] | 4 nM

Row | Compound | EC50
43 | CC(C)(C)NC(=O)C1CCN(Cc2cc(Br)cc(NC(=O)c3cccc(C(F)(F)F)n3)c2)CC1 [Example 1.279] | 420 nM
44 | CC(c1cccc(NC(=O)c2ccncc2)c1)N1CCC(C(=O)NC2CCCCC2)CC1 (racemic) [Example 1.176] | 173 nM
45 | CCc1ccc(CN2CCC(C(=O)NC(C)(C)C)CC2)cc1NC(=O)c1cccc(C(F)(F)F)n1 [Example 1.326] | 2 nM
46 | O=C(Nc1cccc(CN2CCC(C(=O)NC3CCCCC3)CC2)c1)c1cccnc1Cl [Example 1.066] | 44 nM
47 | O=C(Nc1cccc(CN2CCC(C(=O)NC3CCCCC3)CC2)c1)c1ccncc1 [Example 1.053] | 40 nM
48 | CC(C)(C)NC(=O)C1CCN(Cc2cccc(NC(=O)C3CC3(C)C)c2)CC1 (racemic) [Example 1.257] | 7 nM
49 | CCC(c1cccc(NC(=O)c2cccc(C(F)(F)F)n2)c1)N1CCC(C(=O)NC2CCCCC2)CC1 (racemic) [Example 1.308] | 87 nM
50 | COc1cncc(C(=O)Nc2cccc(CN3CCC(C(=O)NC(C)(C)C)CC3)c2)c1 [Example 4.014, N-[3-(4-tert-Butylcarbamoyl-piperidin-1-ylmethyl)-phenyl]-5-methoxy-nicotinmide] | 8 nM
51 | Cc1cc(CN2CCC(C(=O)NC(C)(C)C)CC2)cc(NC(=O)c2cncc(C)c2)c1 [Example 1.317] | 76 nM
52 | O=C(Nc1cccc(CN2CCC(C(=O)NC3CCCCC3)CC2)c1)c1cnccn1 [Example 1.141] | 2 nM
53 | CC(C)(C)NC(=O)C1CCN(Cc2cccc(NC(=O)c3ncc(Cl)cc3F)c2)CC1 [Example 1.340] | 0.7 nM
54 | O=C(Cc1cccc(Cl)c1)Nc1cccc(CN2CCC(C(=O)NC3CCCCC3)CC2)c1 [Example 1.024] | 10 nM
55 | CC(C)(C)NC(=O)C1CCN(Cc2cccc(NC(=O)Cc3cccc(Cl)c3Cl)c2)CC1 [Example 1.246] | 3 nM
56 | CC(C)(C)NC(=O)C1CCN(Cc2cccc(NC(=O)Cc3c(F)ccc(F)c3Cl)c2)CC1 [Example 1.254] | 2 nM
57 | CC(C)(C)NC(=O)C1CCN(Cc2nccc(NC(=O)c3cccc(C(F)(F)F)n3)n2)CC1 [Example 1.286] | 265 nM
58 | O=C(Nc1cccc(CN2CCC(C(=O)NC3CCCCC3)CC2)c1)c1cccc2ccccc12 [Example 1.048] | 46 nM
59 | O=C(Nc1ccc(Cl)c(CN2CCC(C(=O)NC3CCCC3)CC2)c1)c1ccc(C(F)(F)F)cn1 [Example 1.220] | 1 nM
60 | Cc1c(CN2CCC(C(=O)NC(C)(C)C)CC2)cccc1NC(=O)c1cccc(C(F)(F)F)n1 [Example 1.315] | 193 nM
61 | O=C(Nc1ccc(Cl)c(CN2CCC(C(=O)NC3CCCC3)CC2)c1)c1ccc2ncccc2c1 [Example 1.221] | 1 nM
